Measured values: patent US20250199015A1, “CYCLIN-DEPENDENT KINASE 2 INHIBITORS FOR MEDICAL TREATMENT” (INCYCLIX BIO, LLC, priority 2022, published 2025)
Read-outs that look alike come from different tables or passages of the source.

Tests used:
[1] = system: MCF7PDRC15-1 palbociclib resistant breast cancer cells; experiment: CellTiter-Glo viability, palbociclib-resistant MCF7; format: cell-based; settings: Homo sapiens
Experimental: Plates were removed from incubator on day six and treated with CellTiter-Glo (Promega, Inc) following manufacturer's specifications. Plates were then read on Biotek luminometer with 1 sec/well integration. Results were converted to Microsoft Excel and transferred to Graphpad Prism for analysis.
(§1) The Palbo-R MCF7PDRCL5-1 cells were grown in EMEM, glutamax, 10% FBS, 1×ITS. […] Plates were removed from incubator on day six and treated with CellTiter-Glo (Promega, Inc) following manufacturer's specifications. Plates were then read on Biotek luminometer with 1 sec/well integration. Results were converted to Microsoft Excel and transferred to Graphpad Prism for analysis.
as §1, with “In a similar manner,” for “The”, “Glutamax,” for “glutamax,”

MKN1 cells = experiment: Cell cycle by EdU flow cytometry with washout; format: cell-based, human; settings: 300 nM, 24 hr post-initial treatment (0 hr after washout)
Experimental: The MKN1 human stomach carcinoma cell line was grown in RPMI-1640/1× Glutamax/10% heat inactivated fetal bovine serum and was plated at 300,000 cells/well in 6 cm tissue culture treated plates. […] At 24 hours, the remaining plates were rinsed with media before un-treated media was added back. Cells were collected at the indicated times, with 10 μM EdU added for the last hour (FIG. 21A). Cells were collected and fixed in 1% paraformaldehyde. Cells were incubated with Pacific blue azide dye as described by Thermo Scientific. Cells were then incubated with FarRed dye and RNase. Cells were analyzed on a BD Celesta and data compiled using FloJo and GraphPad. Approximately 95% of MKN1 cells were arrested at G1 at 24 hr post-initial treatment (0 hr after washout) (FIG. 21B). […] At 48 hr post-washout, MKN1 cells were synchronized.

γ-H2AX in Hs68 cells = experiment: γ-H2AX flow cytometry in normal fibroblasts; format: cell-based, human; settings: 300 nM, alone or in combination with cisplatin, 24 hours
Experimental: The Hs68 Normal foreskin fibroblast cell line was grown in DMEM-high glucose/1× Glutamax/10% fetal bovine serum and was plated at 30,000 cells/well in Corning 6 well tissue culture treated plates. Cells were incubated at 37° C. for 24 hours prior to addition of the first treatment. […] Cells were treated to 24 hours post-initial treatment, with 10 μM EdU added at hour 23. Cells were collected and fixed in 1% paraformaldehyde. Cells were incubated with pacific blue azide dye as described by Thermo Scientific. Cells were then incubated with antibody against γ-H2AX at a ratio of 1:50 before incubation with FarRed dye and RNase. Cells were analyzed on a BD Celesta and data compiled using FloJo and GraphPad (FIG. 6).

human OAT3 = target: T1, human OAT3 (Homo sapiens, UniProt Q8TCC7); experiment: SLC transporter inhibition in HEK293 cells; format: in vitro ADME
T1 construct: expressed in transfected cells; host or cells: HEK293
T1 sequence (Q8TCC7 1-542): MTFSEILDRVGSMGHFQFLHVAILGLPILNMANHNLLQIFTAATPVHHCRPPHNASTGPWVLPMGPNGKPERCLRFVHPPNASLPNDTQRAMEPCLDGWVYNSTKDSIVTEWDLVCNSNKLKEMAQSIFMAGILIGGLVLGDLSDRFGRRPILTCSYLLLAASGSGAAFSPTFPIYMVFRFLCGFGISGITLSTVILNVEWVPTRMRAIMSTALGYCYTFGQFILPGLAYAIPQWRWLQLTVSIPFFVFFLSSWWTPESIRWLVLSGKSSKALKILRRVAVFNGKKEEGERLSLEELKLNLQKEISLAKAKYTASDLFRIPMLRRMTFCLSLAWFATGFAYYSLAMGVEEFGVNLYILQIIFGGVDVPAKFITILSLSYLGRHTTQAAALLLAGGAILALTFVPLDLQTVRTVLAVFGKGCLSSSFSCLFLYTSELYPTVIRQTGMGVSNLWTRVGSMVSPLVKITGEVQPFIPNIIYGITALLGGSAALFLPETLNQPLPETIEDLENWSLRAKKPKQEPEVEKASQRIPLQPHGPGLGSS

pRb T821 in COV318 cells = experiment: Western blot pRb; format: cell-based, human; settings: 30-1000 nM, 24 hours
Experimental: Cells were plated at 300,000 cells/well in Corning 6 cm tissue culture treated plates. […] Cells were collected by washing each well twice with cold PBS, then scraping cells in the presence of 75 μL cold RIPA with protease and phosphatase inhibitors. Lysates were clarified by centrifugation at 12,000×g for 15 min at 4° C. and supernatants transferred to clean tubes. A BCA assay was performed to determine the protein concentration of each lysate. […] Protein was transferred to a nitrocellulose membrane and blocked with LI-COR blocking buffer for 1 hour. Membranes were incubated overnight in primary antibody at 4° C. Following 3 washes with TBS-T, membranes were incubated for 60 minutes in LI-COR secondary antibodies. Following 3 washes in TBS-T, and one TBS wash, membranes were scanned using a LI-COR OdysseyCLx. Image studio was used for image analysis.

[2] = system: phosphorylated Rb (pRb 807/811) in MCF7PDRC15-1 cells; experiment: Western blot pRb, palbociclib-resistant MCF7; format: cell-based, human
Experimental: Cells were harvested, counted and then plated at 300,000 cells/well in 60 mm tissue culture treated dishes. […] Lysates were clarified by centrifugation at 12,000×g for 15 min at 4° C. and supernatants were transferred to clean tubes. A BCA assay was performed to determine the protein concentration of each lysate. A total of 25 μg of protein was mixed with sample buffer and reducing agent before being run on a 4-12% SDS-PAGE. Protein was transferred to a nitrocellulose membrane and blocked with LI-COR blocking buffer for 1 hour. Membranes were incubated overnight in primary antibody at 4° C. Following 3 washes with TBST, membranes were incubated for 60 minutes in LI-COR secondary antibodies. Following 3 washes in TBST, and one TBS wash, membranes were scanned using a LI-COR OdysseyCLx. Image studio was used for image analysis.

`NS(=O)(=O)c1ccc(Nc2ncc3cc4n(c3n2)C2(CCCCC2)C(=O)NN4)cc1` [Compound I] was tested, and the IC50 ([1]; MCF7, read-out: Cell Viability IC50, Compound I alone, absence of palbociclib) was 995 nM, the IC50 ([1]; MCF7, read-out: Cell Viability IC50, in the presence of 1 μM palbociclib) was 17 nM and the “cells arrested at G1” value (MKN1 cells) was “Approximately 95%”. For the same molecule, the “percent of γ-H2AX-positive cells” value (γ-H2AX in Hs68 cells) was “lower percent of γ-H2AX-positive cells compared with control”, the “Maximum Percent inhibition” value (human OAT3; OAT3, HEK293 cells) was 86% and the IC50 (human OAT3; OAT3, HEK293 cells, read-out: IC50) was 4010 nM. The IC50 (human OAT3; read-out: OAT3 IC50) was 4010 nM, the pRb levels (pRb T821 in COV318 cells) was “dose-dependent decrease in pRb levels” and the “phosphorylated Rb (pRb) levels” value ([2]; 30-1000 nM, 24 hours, no palbociclib) was “little reduction in phosphorylated Rb (pRb) levels”. For the same molecule, the “phosphorylated Rb (pRb) levels” value ([2]; co-administered with 1 μM palbociclib) was “substantial reduction in pRb levels”.
